{"source": "patent US12570641B2", "about": "“Solid forms of a CDK4 inhibitor” (Pfizer Inc., priority 2020, dated 2026)", "format_in_all_cases": "physicochemical", "key": {"[1]": {"experiment": "Accelerated solid state chemical/humidity stability by UPLC", "details": "for % impurity RRT 0.89 / % impurity RRT 1.31: UPLC", "experimental": "Accelerated solid state chemical stability and photostability of PF-07220060 monohydrate (Form 2) was investigated. Solid state chemical/humidity stability of PF-07220060 monohydrate (Form 2) was evaluated by UPLC (ultra performance liquid chromatography) analysis after storage at 70° C./5% RH and 70° C./75% RH for one week, and at 40° C./5% RH and 40° C./75% RH for 6 weeks. The percentage of identified impurity peaks at the indicated RRT (relative retention time) values were determined under the challenge conditions versus a control sample stored at ambient temperature. RRT is calculated by dividing the retention time (RT) of the impurity by the RT of Form 2. Data at 70° C./5% RH and 70° C./75% RH for one week are provided in Table 14 and Table 15, respectively."}, "[2]": {"experiment": "Solid form of control and stressed samples by powder X-ray diffraction", "experimental": "Powder X-ray diffraction analysis was conducted using a Bruker AXS D8 Endeavor diffractometer equipped with a copper radiation source. The divergence slit was set at 15 mm continuous illumination. Diffracted radiation was detected by a PSD-Lynx Eye detector, with the detector PSD opening set at 2.99 degrees. The X-ray tube voltage and amperage were set to 40 kV and 40 mA respectively. Data was collected at the copper (Cu) wavelength (CuKα=[…]) in the Theta-Theta goniometer from 3.0 to 40.0 degrees 2-Theta. A step size of 0.01 degrees and a step time of 1.0 second was used for Form 2, Form 6 and Form 8. A step size of 0.02 degrees and a step time of 0.3 seconds was used for Form 11. The antiscatter screen was set to a fixed distance of 1.5 mm. Samples were rotated during data collection. Samples were prepared by placing them in a silicon low background sample holder and rotated during collection. Data were collected using Bruker DIFFRAC Plus software and analysis was performed by EVA diffract plus software.\nPowder X-ray diffraction was used to assess the solid form of the control and the stressed samples."}, "[3]": {"experiment": "Solid-state photostability (2x ICH light exposure)", "experimental": "Solid-state photostability of PF-07220060 monohydrate (Form 2) was evaluated after light exposure equivalent to 2× International Conference on Harmonisation (ICH) guidelines."}, "[4]": {"experiment": "Moisture sorption (hygroscopicity), water sorption and desorption", "experimental": "Water sorption and desorption studies were conducted on an automated vapor sorption analyzer (TA instruments Q5000 SA). The microbalance was calibrated using a 100 mg standard weight. The relative humidity (RH) sensor was calibrated at 5.0, 11.3, 32.8, 52.8, 75.3, and 84.3% RH (25° C.) using saturated salt solutions. Approximately 10-20 mg of the powder sample was placed in the quartz sample holder and dried at 3% RH at 60° C. The attainment of equilibrium was assumed when the weight change of the sample was <0.001 wt % in 5 min or by a maximum equilibration time of 300 minutes. […] Again, the attainment of equilibrium was assumed when the weight change of the sample was <0.001 wt % in 5 min or by a maximum equilibration time of 300 minutes. The weight gain at 60% RH is based on the weight after the initial drying step.\nWater sorption and desorption studies of PF-07220060 monohydrate (Form 2), prepared as described in Example 2, were conducted according to General Method 6.\nWater sorption and desorption studies of PF-07220060 hydrate (Form 1), prepared as described in Example 5B, were conducted according to General Method 6.\nComparative hygroscopicity experiments were performed using moisture sorption analysis according to General Method 6. PF-07220060 Forms 1, 2, 6, and 8 were evaluated using moisture sorption at 25° C., 60% RH. A form change at the completion of the run was not detected for any of the forms by PXRD."}, "[5]": {"experiment": "Competitive slurry experiments in 2-propanol/1% water", "details": "based on the competition slurry experiments", "experimental": "Competitive slurry experiments were performed between Form 1 and Form 2 (Entry 1), and between Form 6 and Form 2 (Entry 2), in 2-propanol/1% water. Entry 1: […] The solids were collected with vacuum filtration and analyzed with PXRD. PXRD data was consistent with PF-07220060 monohydrate (Form 2). Entry 2: […] The solids were collected with vacuum filtration and analyzed with PXRD. PXRD data was consistent with PF-07220060 monohydrate (Form 2)."}, "[6]": {"experiment": "Thermal stability by Differential Scanning Calorimetry (DSC)", "experimental": "Modulated Differential scanning calorimetry (DSC) measurements were performed with Discovery DSC (TA instruments) equipped with a refrigerated cooling accessory. All the experiments were performed in standard/Tzero aluminum pans. The cell constant was determined using indium and temperature calibration was performed using indium and tin as standards. All the measurements were done under continuous dry nitrogen purge (50 mL/min). Approximately 1-5 mg of solid sample was weighed into a Tzero aluminum pan, sealed non-hermetically and heated from −40° C. to 220° C. at 10° C./min heating rate. The experimental data were analyzed using commercially available software (TA Universal Analysis 2000/Trios software, TA Instruments).\nThermal stability data were obtained through thermogravimetric analysis (TGA) according to General Method 4, and Differential Scanning Calorimetry (DSC) scan according to General Method 5A."}, "[7]": {"details": "control sample stored at ambient temperature"}, "[8]": {"details": "stressed samples: 70° C./75% RH and 70° C./5% RH for one week, 40° C./75% RH and 40° C./5% RH for 6 weeks"}, "[9]": {"details": "UV/Fluor, 2x ICH light exposure"}}, "data": [{"molecule": "CC(C)n1c(C(C)(C)O)nc2c(F)cc(-c3nc(N[C@@H]4CCOC[C@H]4O)ncc3Cl)cc21", "note": "[Form 2, 1,5-anhydro-3-({5-chloro-4-[4-fluoro-2-(2-hydroxypropan-2-yl)-1-(propan-2-yl)-1H-benzimidazol-6-yl]pyrimidin-2-yl}amino)-2,3-dideoxy-D-threo-pentitol monohydrate]", "values": [{"measurement": "% impurity RRT 0.89", "setting": "[1]; 70° C./5% RH (one week)", "result": 0.57, "unit": "%"}, {"measurement": "% impurity RRT 1.31", "setting": "[1]; 70° C./5% RH (one week)", "result": 0.99, "unit": "%"}, {"measurement": "% impurity RRT 0.89", "setting": "[1]; 70° C./75% RH (one week)", "result": 0.58, "unit": "%"}, {"measurement": "% impurity RRT 1.31", "setting": "[1]; 70° C./75% RH (one week)", "result": 1.00, "unit": "%"}, {"measurement": "% impurity RRT 0.89", "setting": "[1]; [7]", "result": 0.57, "unit": "%"}, {"measurement": "% impurity RRT 1.31", "setting": "[1]; [7]", "result": 1.00, "unit": "%"}, {"measurement": "change in appearance compared to the control sample", "setting": "[1]; [8]", "result": "No significant change in appearance"}, {"measurement": "growth of individual impurities", "setting": "[1]; [8]", "result": "≤ 0.2", "unit": "%"}, {"measurement": "total impurities", "setting": "[1]; [8]", "result": "≤ 2.0", "unit": "%"}, {"measurement": "solid form change by PXRD", "setting": "[2]; 40° C./5% RH for six weeks", "result": "disorder"}, {"measurement": "solid form change by PXRD", "setting": "[2]; 40° C./75% RH for six weeks", "result": "No form change was detected"}, {"measurement": "solid form change by PXRD", "setting": "[2]; 70° C./5% RH for one week", "result": "Slight disorder"}, {"measurement": "solid form change by PXRD", "setting": "[2]; 70° C./75% RH for one week", "result": "No form change was detected"}, {"measurement": "solid form change by PXRD", "setting": "[3]; 2×CH condition", "result": "no form change"}, {"measurement": "change in appearance compared to the dark control sample", "setting": "[3]; 2×CH photostability sample", "result": "No significant change in appearance"}, {"measurement": "growth of individual impurities", "setting": "[3]; 2×CH photostability samples", "result": "≤ 0.2", "unit": "%"}, {"measurement": "total impurities", "setting": "[3]; 2×CH photostability samples", "result": "≤ 2.0", "unit": "%"}, {"measurement": "% impurity RRT 0.74", "setting": "[3]; Dark control (wrapped in foil)", "result": "NMT = 0.05%"}, {"measurement": "% impurity RRT 0.87", "setting": "[3]; Dark control (wrapped in foil)", "result": 0.06, "unit": "%"}, {"measurement": "% impurity RRT 1.02", "setting": "[3]; Dark control (wrapped in foil)", "result": "NMT = 0.05%"}, {"measurement": "% impurity RRT 1.33", "setting": "[3]; Dark control (wrapped in foil)", "result": 0.08, "unit": "%"}, {"measurement": "% impurity RRT 0.74", "setting": "[3]; [9]", "result": 0.11, "unit": "%"}, {"measurement": "% impurity RRT 0.87", "setting": "[3]; [9]", "result": 0.06, "unit": "%"}, {"measurement": "% impurity RRT 1.02", "setting": "[3]; [9]", "result": 0.07, "unit": "%"}, {"measurement": "% impurity RRT 1.33", "setting": "[3]; [9]", "result": 0.07, "unit": "%"}, {"measurement": "form change at the completion of the moisture sorption run by PXRD", "setting": "[4]; 25° C., 60% RH", "result": "not detected"}, {"measurement": "Weight gain (%)", "setting": "[4]; 25 °C, RH 0%, listed as PF-07220060 monohydrate (Form 2), monohydrate", "result": 0.00, "unit": "%"}, {"measurement": "Weight gain (%)", "setting": "[4]; 25 °C, RH 10%, desorption, listed as PF-07220060 monohydrate (Form 2), monohydrate", "result": 0.54, "unit": "%"}, {"measurement": "Weight gain (%)", "setting": "[4]; 25 °C, RH 10%, sorption, listed as PF-07220060 monohydrate (Form 2), monohydrate", "result": 0.45, "unit": "%"}, {"measurement": "Weight gain (%)", "setting": "[4]; 25 °C, RH 20%, desorption, listed as PF-07220060 monohydrate (Form 2), monohydrate", "result": 0.55, "unit": "%"}, {"measurement": "Weight gain (%)", "setting": "[4]; 25 °C, RH 20%, sorption, listed as PF-07220060 monohydrate (Form 2), monohydrate", "result": 0.49, "unit": "%"}, {"measurement": "Weight gain (%)", "setting": "[4]; 25 °C, RH 30%, desorption, listed as PF-07220060 monohydrate (Form 2), monohydrate", "result": 0.56, "unit": "%"}, {"measurement": "Weight gain (%)", "setting": "[4]; 25 °C, RH 30%, sorption, listed as PF-07220060 monohydrate (Form 2), monohydrate", "result": 0.51, "unit": "%"}, {"measurement": "Weight gain (%)", "setting": "[4]; 25 °C, RH 40%, desorption, listed as PF-07220060 monohydrate (Form 2), monohydrate", "result": 0.57, "unit": "%"}, {"measurement": "Weight gain (%)", "setting": "[4]; 25 °C, RH 40%, sorption, listed as PF-07220060 monohydrate (Form 2), monohydrate", "result": 0.52, "unit": "%"}, {"measurement": "Weight gain (%)", "setting": "[4]; 25 °C, RH 50%, desorption, listed as PF-07220060 monohydrate (Form 2), monohydrate", "result": 0.58, "unit": "%"}, {"measurement": "Weight gain (%)", "setting": "[4]; 25 °C, RH 50%, sorption, listed as PF-07220060 monohydrate (Form 2), monohydrate", "result": 0.54, "unit": "%"}, {"measurement": "Weight gain (%)", "setting": "[4]; 25 °C, RH 60%, desorption, listed as PF-07220060 monohydrate (Form 2), monohydrate", "result": 0.60, "unit": "%"}, {"measurement": "Weight gain (%)", "setting": "[4]; 25 °C, RH 60%, sorption, listed as PF-07220060 monohydrate (Form 2), monohydrate", "result": 0.56, "unit": "%"}, {"measurement": "Weight gain (%)", "setting": "[4]; 25 °C, RH 70%, desorption, listed as PF-07220060 monohydrate (Form 2), monohydrate", "result": 0.60, "unit": "%"}, {"measurement": "Weight gain (%)", "setting": "[4]; 25 °C, RH 70%, sorption, listed as PF-07220060 monohydrate (Form 2), monohydrate", "result": 0.57, "unit": "%"}, {"measurement": "Weight gain (%)", "setting": "[4]; 25 °C, RH 80%, desorption, listed as PF-07220060 monohydrate (Form 2), monohydrate", "result": 0.61, "unit": "%"}, {"measurement": "Weight gain (%)", "setting": "[4]; 25 °C, RH 80%, sorption, listed as PF-07220060 monohydrate (Form 2), monohydrate", "result": 0.59, "unit": "%"}, {"measurement": "Weight gain (%)", "setting": "[4]; 25 °C, RH 90%, listed as PF-07220060 monohydrate (Form 2), monohydrate", "result": 0.62, "unit": "%"}, {"measurement": "Weight gain (%)", "setting": "[4]; 60 °C, RH 0% (initial drying step)", "result": 0.00, "unit": "%"}, {"measurement": "Weight Gain (%) at 25° C., 60% RH", "setting": "[4]; comparative summary of Forms 1, 2, 6 and 8, monohydrate", "result": "<1", "unit": "%"}, {"measurement": "hygroscopicity relative to Form 8 and Form 1", "setting": "[4]; moisture sorption at 25° C., 60% RH", "result": "reduced hygroscopicity"}, {"measurement": "relative humidity above which the form is thermodynamically stable", "setting": "[5]", "result": "above 15 % RH"}, {"measurement": "thermal stability relative to Form 1 and Form 8", "setting": "[6]; TGA and DSC", "result": "improved thermal stability"}, {"measurement": "Thermal stability via DSC (° C.)", "setting": "[6]; listed as Form 2 (monohydrate), monohydrate", "result": 50, "unit": "°C"}]}]}
